Legend:
[1] = test system: 19-20 month-old male rats; assay: Elevated plus-maze, rats fed QBA alone or QBA+DHA; format: in vivo, rat; settings: DHA 0.00
Experimental: Rats were fed QBA and subjected to an elevated plus-maze. The elevated plus-maze was elevated ˜85 cm above the floor and consisted of two open and two closed arms of the same size (50×10 cm). The closed arms were surrounded by walls 40 cm high, and the arms were constructed of black acrylic slabs that radiated from a central platform (10×10 cm) to form a plus sign. Each rat was placed in the central platform facing one of the open arms, and its behavior was recorded during a 5-min testing period with video capture software. More time spent in the open arms is an indication of reduced anxiety-like state. Rats were tested at 18 months old (N=11-13 per group).
The dose-response characteristics of 10-Hydroxy-2-decenoic acid's (QBA's) in combination with DHA for potential brain health benefits during aging were assessed for mood in 19-20 month-old male rats (N=11-14 per group). Rats were fed QBA alone or QBA+DHA and subjected to an elevated plus-maze.

[2] = test system: Neurons from the brain's hippocampus; assay: In vitro hypoxia cell health (calcein AM); format: cell-based, rat; settings: for Cell Viability (% Control): hypoxia (<0.3% O2) 48 h
Experimental: (§1) Neurons from the brain's hippocampus were derived from E17 pups and incubated for 7 days. The neurons were then pre-treated with QBA for 48 hours and subsequently exposed to a hypoxia (<0.3% O2) for 48 hours. The cultures were stained with calcein AM, a marker of live cells, and with ethidium homodimer, a marker for dead cells. The fluorescence of each of these markers was then quantitated with a fluorimeter.

[3] = Townsend et al. 1960; Izuta et al. 2009; cited from earlier work
[4] = test system: Neurons from the brain's hippocampus; assay: In vitro hypoxia cell death (ethidium homodimer); format: cell-based, rat; settings: for Cell Death (% Control): hypoxia (<0.3% O2) 48 h
Experimental: as §1

[5] = test system: Young adult female Long-Evans rats; assay: Conception index of female rats with abnormal ovulatory cycles; format: in vivo, rat; settings: for Conception Index (%): eight weeks, then mated
Experimental: Young adult female Long-Evans rats (3 months-old) with abnormal ovulatory cycles were fed diets containing 10-Hydroxy-2-decenoic acid (QBA) or no QBA for eight (8) weeks and then mated with a male rat. Female rats having normal ovulatory cycles were used as positive controls and were not fed QBA. The conception index was determined. The conception index is a measure of conception efficiency and is equal to the number of pregnancies divided by the number of discernable mating sessions multiplied by 100.

[6] = test system: Neurons from the brain's hippocampus; assay: Glutamate toxicity, mitochondrial health (TMRE); format: cell-based, rat; settings: for Mitochondrial Health (% Control): glutamate 25 μM 24 h
Experimental: Neurons from the brain's hippocampus were derived from E17 pups and incubated for 7 days. The cells were pre-treated with QBA for 48 hours and subsequently challenged with glutamate (25 μM) for 24 hours. The cultures were then stained with propidium iodide, a marker of cell death, and with tetramethylrhodamine ethyl ester (TMRE), a marker for mitochondrial health. The fluorescence of each of these markers was then quantitated with a fluorimeter.

older male rats = assay: Learning acquisition, Barnes maze task; format: in vivo, rat; settings: for Escape Latency: average of two trial runs
Experimental: The dose-response characteristics of 10-Hydroxy-2-decenoic acid's (QBA's) potential brain health benefits during aging were assessed for cognitive performance in older male rats (16-17 months old; N=10-12 per group). Rats were fed QBA for 4-5 months prior to behavioral assessment. Spatial learning and memory performance was tested using the Barnes circular maze which consists of a 4-ft diameter, gray circular platform raised 90 cm above the floor level with 20 holes, 10 cm in diameter, evenly spaced around the circumference. Animals were trained to locate a black escape tunnel beneath one of the holes in response to aversive light stimuli. The latency to enter the escape box in each of two trials across four trial days was recorded. Shorter latencies across and within trial days is an indication of better cognitive performance.

[7] = Weight after Barnes maze psychological stress (Example 9); format: in vivo, rat
Experimental: Aged male rats were fed 10-Hydroxy-2-decenoic acid (QBA) for approximately […] from 12-months to 20-months of age and the weight of rats was recorded (N=11-14 per group). During the last month of QBA feeding animals were subjected to the psychological stress of the Barnes maze.

older rats = assay: Open field test, older rats fed QBA; format: in vivo, rat; settings: for Center Entries (#): rats 15 months old, thirty minutes
Experimental: The dose-response characteristics of 10-Hydroxy-2-decenoic acid's (QBA's) potential brain health benefits during aging were assessed for mood in older rats (18-20 months old).
In the open field test each rat was placed in a novel environment consisting of an arena measuring 100×100×40 cm. Rats were placed in the middle of the chamber and behavior in the open field was recorded for thirty minutes with a digital camera and measured by software. More time spent in the center of the area is an indication of a reduced anxiety-like state. Rats were tested at 15 months old (N=11-12 per group).

[8] = QBA 10.00 μM pre-treatment 48 h
[9] = QBA 30.00 μM pre-treatment 48 h
[10] = QBA 100.00 μM pre-treatment 48 h

O=C(O)C=CCCCCCCCO [QBA, 10-Hydroxy-2-decenoic acid]
Time (s) in Open Arm ([1]; QBA 12 mg/kg/day): 31.7 s
Time (s) in Open Arm ([1]; QBA 24 mg/kg/day): 31.7 s
Cell Viability (% Control) ([2]; QBA 0.10 μM pre-treatment 48 h): 109.72 % Control
Cell Viability (% Control) ([2]; QBA 0.30 μM pre-treatment 48 h): 112.76 % Control
Cell Viability (% Control) ([2]; QBA 1.00 μM pre-treatment 48 h): 118.80 % Control
Cell Viability (% Control) ([2]; QBA 3.00 μM pre-treatment 48 h): 121.04 % Control
Cell Viability (% Control) [2, 8]: 117.65 % Control
Cell Viability (% Control) [2, 9]: 115.05 % Control
Cell Viability (% Control) [2, 10]: 111.82 % Control
cell health after low oxygen exposure ([2]; summary of Table 5): increased cell health
in vitro antitumor activity [3]: antitumor activity
Cell Death (% Control) ([4]; QBA 0.10 μM pre-treatment 48 h): 86.26 % Control
Cell Death (% Control) ([4]; QBA 0.30 μM pre-treatment 48 h): 83.62 % Control
Cell Death (% Control) ([4]; QBA 1.00 μM pre-treatment 48 h): 83.00 % Control
Cell Death (% Control) ([4]; QBA 3.00 μM pre-treatment 48 h): 82.20 % Control
Cell Death (% Control) [4, 8]: 85.13 % Control
Cell Death (% Control) [4, 9]: 82.29 % Control
Cell Death (% Control) [4, 10]: 86.39 % Control
cell death after low oxygen exposure ([4]; summary of Table 4): decreased cell death
Conception Index (%) ([5]; QBA 0.4 mg/kg/day): 112.5%
Conception Index (%) ([5]; QBA 4 mg/kg/day): 107.7%
Conception Index (%) ([5]; QBA 12 mg/kg/day): 225.0%
Conception Index (%) ([5]; QBA 24 mg/kg/day): 200.0%
conception index ([5]; summary of Table 17): increased the conception index
Mitochondrial Health (% Control) ([6]; QBA 0.10 μM pre-treatment 48 h): 101.94 % Control
Mitochondrial Health (% Control) ([6]; QBA 0.30 μM pre-treatment 48 h): 112.27 % Control
Mitochondrial Health (% Control) ([6]; QBA 1.00 μM pre-treatment 48 h): 110.50 % Control
Mitochondrial Health (% Control) ([6]; QBA 3.00 μM pre-treatment 48 h): 106.39 % Control
Mitochondrial Health (% Control) [6, 8]: 111.02 % Control
Mitochondrial Health (% Control) [6, 9]: 114.72 % Control
Mitochondrial Health (% Control) [6, 10]: 123.80 % Control
cell health after glutamate toxicity ([6]; summary of Table 3): increased cell health
Escape Latency (older male rats; QBA 0.4 mg/kg/day, trial day 1): 98.8 s
Escape Latency (older male rats; QBA 0.4 mg/kg/day, trial day 2): 63.4 s
Escape Latency (older male rats; QBA 0.4 mg/kg/day, trial day 3): 63.4 s
Escape Latency (older male rats; QBA 0.4 mg/kg/day, trial day 4): 24.7 s
Escape Latency (older male rats; QBA 4 mg/kg/day, trial day 1): 106.7 s
Escape Latency (older male rats; QBA 4 mg/kg/day, trial day 2): 43.4 s
Escape Latency (older male rats; QBA 4 mg/kg/day, trial day 3): 43.4 s
Escape Latency (older male rats; QBA 4 mg/kg/day, trial day 4): 23.6 s
Escape Latency (older male rats; QBA 12 mg/kg/day, trial day 1): 79.3 s
Escape Latency (older male rats; QBA 12 mg/kg/day, trial day 2): 30.7 s
Escape Latency (older male rats; QBA 12 mg/kg/day, trial day 3): 30.7 s
Escape Latency (older male rats; QBA 12 mg/kg/day, trial day 4): 24.3 s
Escape Latency (older male rats; QBA 24 mg/kg/day, trial day 1): 109.8 s
Escape Latency (older male rats; QBA 24 mg/kg/day, trial day 2): 48.4 s
Escape Latency (older male rats; QBA 24 mg/kg/day, trial day 3): 48.4 s
Escape Latency (older male rats; QBA 24 mg/kg/day, trial day 4): 34.3 s
speed of learning acquisition (Barnes maze task) (older male rats; male rats aged 16-17 months): increased the speed of learning acquisition
% Change (Weight after Barnes maze) ([7]; QBA 12 mg/kg/day, behavior stress day 7): −0.15%
% Change (Weight after Barnes maze) ([7]; QBA 12 mg/kg/day, behavior stress day 14): −0.20%
% Change (Weight after Barnes maze) ([7]; QBA 12 mg/kg/day, behavior stress day 21): 0.56%
% Change (Weight after Barnes maze) ([7]; QBA 12 mg/kg/day, behavior stress day 28): 0.63%
% Change (Weight after Barnes maze) ([7]; QBA 12 mg/kg/day, behavior stress day 35): 0.87%
% Change (Weight after Barnes maze) ([7]; QBA 24 mg/kg/day, behavior stress day 7): −0.15%
% Change (Weight after Barnes maze) ([7]; QBA 24 mg/kg/day, behavior stress day 14): 0.02%
% Change (Weight after Barnes maze) ([7]; QBA 24 mg/kg/day, behavior stress day 21): 0.54%
% Change (Weight after Barnes maze) ([7]; QBA 24 mg/kg/day, behavior stress day 28): 0.74%
% Change (Weight after Barnes maze) ([7]; QBA 24 mg/kg/day, behavior stress day 35): 1.32%
weight change versus control, repeated measures ANOVA ([7]; all doses versus 0 mg/kg/day QBA or 0 mg/kg/day QBA+0.07% DHA): small but significant increase
weight loss associated with the psychological stress ([7]; summary of Table 15): mitigated weight loss
Center Entries (#) (older rats; QBA 0.4 mg/kg/day): 1.82 #
Center Entries (#) (older rats; QBA 4 mg/kg/day): 2.50 #
Center Entries (#) (older rats; QBA 12 mg/kg/day): 1.82 #
anxiety as measured by the number of center entries in the open field arena (older rats; QBA 24 mg/kg/d, 15-18-month old male rats): decreased anxiety
Center Entries (#) (older rats; QBA 24 mg/kg/day): 3.75 #

From patent publication US10004711B2, “Methods and compositions comprising 10-hydroxy-2-decenoic acid” (DSM IP ASSETS B.V., priority 2014, dated 2018)
